ChEMBL document CHEMBL4145625 (J Med Chem, 2018)
In brackets after ≈: the same amount, converted by molar mass.

How the values were obtained:
U-87 MG [1] = assay: Antitumor activity against Luc tagged human U87MG cells xenografted in BALB/c nude mouse glioblastoma orthotopic model assessed as tumor growth inhibition at 30 mg/kg, po administered daily for 5 days by MRI method relative to control; format: functional, U-87MG ATCC; conditions: 120 h, read-out: TGI
in vivo [2] = conditions: ICR, mouse, in vivo, iv, 3 mg/kg
Description: Half life in ICR mouse plasma at 3 mg/kg, iv by LC/MS/MS analysis

NCI-H209 [3] = assay: animal or person; conditions: Mus musculus, NCI-H209, po, read-out: TGI
in vivo [4] = conditions: ICR, mouse, in vivo, po, 30 mg/kg
in vivo [5] = conditions: ICR, mouse, in vivo, po, 30 mg/kg; remark: listed apart in the source
NCI-H209 [6] = assay: animal or person; conditions: Mus musculus, NCI-H209, po, read-out: TGI; remark: listed apart in the source
Description: Antitumor activity against human NCI-H209 cells xenografted in BALB/c nude mouse assessed as tumor growth inhibition at 5 mg/kg, po administered once daily after 19 consecutive days relative to control

[7] = molecular target: Phosphatidylinositol 4,5-bisphosphate 3-kinase catalytic subunit beta isoform (Homo sapiens, UniProt P42338); assay: Inhibition of PI3Kbeta (unknown origin) using PIP2 as substrate by ADP-Glo assay
Chain of Phosphatidylinositol 4,5-bisphosphate 3-kinase catalytic subunit beta isoform (P42338 whole entry, canonical isoform): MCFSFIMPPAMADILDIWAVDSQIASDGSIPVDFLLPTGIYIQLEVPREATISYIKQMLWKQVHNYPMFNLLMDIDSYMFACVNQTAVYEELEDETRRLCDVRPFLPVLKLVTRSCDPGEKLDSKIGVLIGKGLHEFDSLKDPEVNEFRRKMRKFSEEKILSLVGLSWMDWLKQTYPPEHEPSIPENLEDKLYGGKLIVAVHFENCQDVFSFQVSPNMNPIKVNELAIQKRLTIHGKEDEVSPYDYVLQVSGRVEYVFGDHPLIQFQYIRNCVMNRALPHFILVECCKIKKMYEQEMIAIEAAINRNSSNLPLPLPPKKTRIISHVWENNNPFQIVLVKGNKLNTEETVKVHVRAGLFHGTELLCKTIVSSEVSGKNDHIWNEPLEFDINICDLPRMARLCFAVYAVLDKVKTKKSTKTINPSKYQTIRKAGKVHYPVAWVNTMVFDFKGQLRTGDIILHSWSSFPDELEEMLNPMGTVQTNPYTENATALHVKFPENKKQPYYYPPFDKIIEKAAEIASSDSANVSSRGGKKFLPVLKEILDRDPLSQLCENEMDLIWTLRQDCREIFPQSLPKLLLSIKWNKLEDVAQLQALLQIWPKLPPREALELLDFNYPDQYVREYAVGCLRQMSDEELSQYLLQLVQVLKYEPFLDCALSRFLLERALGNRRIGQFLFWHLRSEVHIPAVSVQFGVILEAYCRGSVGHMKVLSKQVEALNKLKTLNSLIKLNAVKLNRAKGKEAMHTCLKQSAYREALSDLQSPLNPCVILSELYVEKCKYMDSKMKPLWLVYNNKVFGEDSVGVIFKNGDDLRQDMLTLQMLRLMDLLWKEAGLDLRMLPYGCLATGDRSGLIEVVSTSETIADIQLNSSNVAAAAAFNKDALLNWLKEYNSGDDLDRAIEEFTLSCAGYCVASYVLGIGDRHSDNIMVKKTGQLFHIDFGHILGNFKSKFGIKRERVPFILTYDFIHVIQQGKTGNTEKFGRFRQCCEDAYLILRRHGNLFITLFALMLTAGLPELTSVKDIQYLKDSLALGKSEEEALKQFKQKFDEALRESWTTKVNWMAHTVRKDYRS

in vivo [8] = conditions: ICR, mouse, in vivo, po, 30 mg/kg; remark: listed apart in the source
in vivo [9] = conditions: ICR, mouse, in vivo, iv, 3 mg/kg; remark: listed apart in the source
Description: Clearance in ICR mouse plasma at 3 mg/kg, iv by LC/MS/MS analysis

[10] = molecular target: T1, Phosphatidylinositol 4,5-bisphosphate 3-kinase catalytic subunit delta isoform (Homo sapiens, UniProt O00329); assay: Inhibition of PI3Kdelta (unknown origin) using PIP2 as substrate by ADP-Glo assay
T1 sequence (O00329 whole entry): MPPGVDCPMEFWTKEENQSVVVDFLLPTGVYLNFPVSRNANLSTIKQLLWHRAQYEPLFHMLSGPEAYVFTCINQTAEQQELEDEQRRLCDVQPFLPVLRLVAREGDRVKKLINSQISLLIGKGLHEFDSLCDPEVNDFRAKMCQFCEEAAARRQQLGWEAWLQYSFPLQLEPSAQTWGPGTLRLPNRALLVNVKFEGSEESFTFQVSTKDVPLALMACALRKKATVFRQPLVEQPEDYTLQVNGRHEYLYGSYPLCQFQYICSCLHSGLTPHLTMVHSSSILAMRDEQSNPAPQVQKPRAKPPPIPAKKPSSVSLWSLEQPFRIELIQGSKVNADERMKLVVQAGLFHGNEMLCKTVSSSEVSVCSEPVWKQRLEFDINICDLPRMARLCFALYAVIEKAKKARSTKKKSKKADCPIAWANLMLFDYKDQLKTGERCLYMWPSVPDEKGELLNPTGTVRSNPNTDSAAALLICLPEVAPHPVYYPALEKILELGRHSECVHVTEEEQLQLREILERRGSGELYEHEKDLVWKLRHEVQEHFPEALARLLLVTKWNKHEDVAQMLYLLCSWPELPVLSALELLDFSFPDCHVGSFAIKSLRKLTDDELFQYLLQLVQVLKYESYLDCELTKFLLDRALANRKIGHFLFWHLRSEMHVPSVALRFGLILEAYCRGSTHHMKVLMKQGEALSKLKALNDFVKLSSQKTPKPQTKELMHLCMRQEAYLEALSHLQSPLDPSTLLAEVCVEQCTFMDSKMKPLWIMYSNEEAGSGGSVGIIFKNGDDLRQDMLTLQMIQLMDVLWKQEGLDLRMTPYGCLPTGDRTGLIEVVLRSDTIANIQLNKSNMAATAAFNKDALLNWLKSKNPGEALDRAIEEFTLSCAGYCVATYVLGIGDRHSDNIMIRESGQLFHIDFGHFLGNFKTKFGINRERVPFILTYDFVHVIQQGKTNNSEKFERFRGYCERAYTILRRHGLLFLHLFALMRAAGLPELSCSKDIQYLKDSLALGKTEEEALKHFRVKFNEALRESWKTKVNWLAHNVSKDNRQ

[11] = molecular target: RAC-alpha serine/threonine-protein kinase (Homo sapiens, UniProt P31749); assay: Inhibition of AKT1 (unknown origin) using FAM-labeled peptide as substrate by mobility shift assay
Chain of RAC-alpha serine/threonine-protein kinase (P31749 whole entry): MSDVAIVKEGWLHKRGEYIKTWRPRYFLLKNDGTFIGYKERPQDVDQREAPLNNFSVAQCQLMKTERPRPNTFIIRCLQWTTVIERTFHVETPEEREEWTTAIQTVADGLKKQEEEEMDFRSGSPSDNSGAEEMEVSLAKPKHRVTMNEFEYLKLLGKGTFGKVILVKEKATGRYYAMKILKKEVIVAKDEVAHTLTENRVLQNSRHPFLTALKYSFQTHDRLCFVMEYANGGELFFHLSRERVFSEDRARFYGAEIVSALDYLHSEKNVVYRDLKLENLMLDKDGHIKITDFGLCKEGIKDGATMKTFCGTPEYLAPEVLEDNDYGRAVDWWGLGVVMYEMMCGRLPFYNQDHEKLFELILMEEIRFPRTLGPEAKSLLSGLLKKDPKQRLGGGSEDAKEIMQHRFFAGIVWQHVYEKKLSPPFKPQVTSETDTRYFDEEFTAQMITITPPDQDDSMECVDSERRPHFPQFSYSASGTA

HGC-27 [12] = assay: cells; format: functional, cell-based; conditions: Homo sapiens, HGC-27, 96 h
Description: Cytotoxicity against human HGC27 cells after 96 hrs by MTT assay

NCI-H209 [13] = conditions: Homo sapiens
Description: Antitumor activity against human NCI-H209 cells xenografted in po dosed BALB/c nude mouse assessed as tumor growth inhibition administered once daily after 19 consecutive days

NCI-H460 [14] = assay: Antitumor activity against human NCI-H460 cells xenografted in po dosed athymic BALB/c nude mouse administered as single dose via gavage after 2 to 24 hrs; format: functional, organism-based
[15] = molecular target: Phosphatidylinositol 4,5-bisphosphate 3-kinase catalytic subunit gamma isoform (Homo sapiens, UniProt P48736); assay: Inhibition of PI3Kgamma (unknown origin) using PIP2 as substrate by ADP-Glo assay
Chain of Phosphatidylinositol 4,5-bisphosphate 3-kinase catalytic subunit gamma isoform (P48736 whole entry, canonical isoform): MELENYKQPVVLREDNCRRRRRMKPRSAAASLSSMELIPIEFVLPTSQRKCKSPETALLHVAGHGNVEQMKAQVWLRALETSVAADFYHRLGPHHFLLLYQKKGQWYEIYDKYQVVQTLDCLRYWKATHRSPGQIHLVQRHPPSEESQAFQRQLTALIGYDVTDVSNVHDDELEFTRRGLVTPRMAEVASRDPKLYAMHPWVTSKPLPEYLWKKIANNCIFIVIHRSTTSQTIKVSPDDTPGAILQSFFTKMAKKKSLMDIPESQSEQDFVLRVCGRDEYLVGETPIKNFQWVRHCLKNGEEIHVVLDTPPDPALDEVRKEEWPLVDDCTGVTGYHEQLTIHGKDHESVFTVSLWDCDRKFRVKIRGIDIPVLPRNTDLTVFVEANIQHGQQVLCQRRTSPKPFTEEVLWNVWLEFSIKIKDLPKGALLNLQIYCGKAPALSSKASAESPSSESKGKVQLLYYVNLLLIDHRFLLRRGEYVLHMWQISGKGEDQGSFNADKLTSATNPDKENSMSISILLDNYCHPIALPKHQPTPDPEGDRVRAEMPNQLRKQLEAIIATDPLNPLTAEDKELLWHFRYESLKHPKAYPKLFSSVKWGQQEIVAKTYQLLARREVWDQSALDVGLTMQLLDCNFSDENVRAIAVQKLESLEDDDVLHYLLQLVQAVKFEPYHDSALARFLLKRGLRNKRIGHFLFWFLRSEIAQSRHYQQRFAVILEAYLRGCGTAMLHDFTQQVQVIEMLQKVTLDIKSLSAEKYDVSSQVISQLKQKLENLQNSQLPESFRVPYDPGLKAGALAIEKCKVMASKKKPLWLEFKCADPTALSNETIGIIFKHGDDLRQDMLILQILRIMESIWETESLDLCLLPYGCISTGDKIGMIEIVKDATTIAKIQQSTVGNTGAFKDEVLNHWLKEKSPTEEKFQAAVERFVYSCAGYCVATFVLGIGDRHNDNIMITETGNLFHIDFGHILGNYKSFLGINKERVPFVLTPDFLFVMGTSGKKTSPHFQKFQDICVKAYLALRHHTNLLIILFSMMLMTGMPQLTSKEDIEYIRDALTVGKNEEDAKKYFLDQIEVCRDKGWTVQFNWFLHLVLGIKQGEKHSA

in vivo [16] = conditions: ICR, mouse, in vivo, iv, 3 mg/kg; remark: listed apart in the source
MDA-MB-231 = assay: cells; format: functional, cell-based; conditions: Homo sapiens, MDA-MB-231, 96 h
Description: Cytotoxicity against human MDA-MB-231 cells after 96 hrs by MTT assay

in vivo [17] = conditions: ICR, mouse, in vivo, iv, 3 mg/kg; remark: listed apart in the source
U-251 = assay: cells; format: functional, cell-based; conditions: Homo sapiens, U-251, 96 h
Description: Cytotoxicity against human U251 cells after 96 hrs by MTT assay

Mus musculus [18] = assay: In vivo inhibition of PI3Kalpha in po dosed athymic BALB/c nude mouse xenografted with human NCI-H460 cells administered as single dose via gavage after 2 to 24 hrs; format: functional, organism-based
MGC-803 [19] = assay: animal or person; conditions: Mus musculus, MGC-803, po, 432 h, read-out: TGI
in vivo [20] = conditions: ICR, mouse, po
Description: Toxicity in po dosed ICR mouse administered as single dose via oral gavage measured after 14 days

in vitro [21] = conditions: ICR, mouse, plasma
Description: Protein binding in ICR mouse plasma at 2 uM after 6 hrs by LC-MS/MS analysis

NCI-H460 [22] = assay: Antitumor activity against human NCI-H460 cells xenografted in BALB/c nude mouse assessed as tumor growth inhibition at 10 mg/kg, po administered once daily after 20 days relative to control; format: functional; conditions: 480 h, read-out: TGI
PC-3 = assay: cells; format: functional, cell-based; conditions: Homo sapiens, PC-3, 96 h
Description: Cytotoxicity against human PC3 cells after 96 hrs by MTT assay

in vivo [23] = conditions: ICR, mouse, in vivo, iv, 3 mg/kg; remark: listed apart in the source
MGC-803 [24] = assay: Antitumor activity against human MGC803 cells xenografted in BALB/c nude mouse assessed as tumor growth inhibition at 5 mg/kg, po administered once daily for 18 days measured at post last dose relative to control; format: functional; conditions: MGC-803, po, 432 h, read-out: TGI
U-87 MG [25] = assay: cells; format: functional, cell-based, U-87MG ATCC; conditions: Homo sapiens, 96 h
Description: Cytotoxicity against human U87MG cells after 96 hrs by MTT assay

in vivo [26] = conditions: athymic BALB/c nude, mouse, in vivo, po, 10 mg/kg
MGC-803 [27] = assay: Antitumor activity against human MGC803 cells xenografted in BALB/c nude mouse assessed as tumor growth inhibition at 10 mg/kg, po administered once daily for 18 days measured at post last dose relative to control; format: functional; conditions: MGC-803, po, 432 h, read-out: TGI
in vitro [28] = conditions: human, plasma
Description: Protein binding in human plasma at 2 uM after 6 hrs by LC-MS/MS analysis

in vivo [29] = conditions: ICR, mouse, in vivo, iv, 3 mg/kg; remark: listed apart in the source
[30] = mouse, in vivo, po, 30 mg/kg
in vivo [31] = conditions: ICR, mouse, in vivo, po, 30 mg/kg; remark: listed apart in the source
in vivo [32] = conditions: ICR, mouse, in vivo, po, 30 mg/kg; remark: listed apart in the source
Description: Half life in ICR mouse plasma at 30 mg/kg, po by LC/MS/MS analysis

in vivo [33] = conditions: ICR, mouse, in vivo, po, 30 mg/kg; remark: listed apart in the source
in vivo [34] = conditions: ICR, mouse, in vivo, po, 30 mg/kg; remark: listed apart in the source
HGC-27 [35] = assay: Antitumor activity against human HGC27 cells xenografted in BALB/c nude mouse assessed as tumor growth inhibition at […], po administered once daily for 15 days measured at post last dose relative to control; format: functional; conditions: HGC-27, po, 360 h, read-out: TGI
A549 = assay: cells; format: functional, cell-based; conditions: Homo sapiens, A549, 96 h
Description: Cytotoxicity against human A549 cells after 96 hrs by MTT assay

SH-SY5Y = assay: cells; format: functional, cell-based; conditions: Homo sapiens, 96 h
Description: Cytotoxicity against human SH-SY5Y cells after 96 hrs by MTT assay

[36] = molecular target: Serine/threonine-protein kinase mTOR (Homo sapiens, UniProt P42345); assay: Inhibition of mTOR (unknown origin) using ULight-4E-BP1 peptide as substrate after 30 mins by Lance Ultra assay
NCI-H460 [37] = assay: animal or person; conditions: Mus musculus, NCI-H460, po, 480 h, read-out: TGI
Description: Antitumor activity against human NCI-H460 cells xenografted in BALB/c nude mouse assessed as tumor growth inhibition at 5 mg/kg, po administered once daily after 20 days relative to control

MGC-803 [38] = conditions: Homo sapiens
Description: Antitumor activity against human MGC803 cells xenografted in po dosed BALB/c nude mouse assessed as tumor growth inhibition administered once daily measured at post last dose

in vivo [39] = conditions: ICR, mouse, in vivo, iv, 3 mg/kg; remark: listed apart in the source
Description: Volume of distribution at steady state in ICR mouse plasma at 3 mg/kg, iv by LC/MS/MS analysis

T98G = assay: cells; format: functional, cell-based; conditions: Homo sapiens, 96 h
Description: Cytotoxicity against human T98G cells after 96 hrs by MTT assay

DU-145 = assay: cells; format: functional, cell-based; conditions: Homo sapiens, DU-145, 96 h
Description: Cytotoxicity against human DU145 cells after 96 hrs by MTT assay

NCI-H460 [40] = assay: cells; format: functional, cell-based; conditions: Homo sapiens, NCI-H460, 96 h
Description: Cytotoxicity against human NCI-H460 cells after 96 hrs by MTT assay

Mus musculus [41] = assay: Toxicity in human NCI-H460 cells xenografted BALB/c nude mouse assessed as reduction in body weight at 10 mg/kg, po administered once daily after 20 days; format: organism-based; conditions: in vivo, 480 h
NCI-H460 [42] = assay: Antitumor activity against human NCI-H460 cells xenografted in BALB/c nude mouse assessed as tumor growth inhibition at 24 mg/kg, ip administered once daily after 16 days relative to control; format: functional; conditions: 384 h, read-out: TGI
Mus musculus [43] = assay: Toxicity in human NCI-H460 cells xenografted BALB/c nude mouse assessed as reduction in body weight at 24 mg/kg, ip administered once daily after 20 days; format: organism-based; conditions: in vivo, 480 h
NCI-H460 [44] = assay: Antitumor activity against human NCI-H460 cells xenografted in BALB/c nude mouse assessed as tumor growth inhibition at 24 mg/kg, ip administered once daily after 20 days relative to control; format: functional; conditions: 480 h, read-out: TGI
Mus musculus [45] = assay: Toxicity in human NCI-H460 cells xenografted BALB/c nude mouse assessed as reduction in body weight at 24 mg/kg, ip administered once daily after 16 days; format: organism-based; conditions: in vivo, 384 h

**Q.** Which inhibition in vivo at 30 mg/kg (U-87 MG [1]) does the source give for `COc1ccc(CN2CCNCC2)c(OC)c1OC` [TRIMETAZIDINE] here?
**A.** 98.1%

**Q.** Which results are given for `COc1ncc(-c2cc(OC3CCOCC3)c3nc(N)nc(C)c3c2)cc1NS(=O)(=O)c1ccc(F)cc1F`?
**A.** half-life (in vivo [2]): 88.8 min; inhibition in vivo at […] (NCI-H209 [3]): 80.9%; Tmax (in vivo [4]): 30 min; Cmax (in vivo [5]): 4.29 µg/mL; inhibition in vivo at 5 mg/kg (NCI-H209 [6]): 91.7%; IC50 [7]: 0.00053 µM; bioavailability (in vivo [8]): 33.2%; clearance (in vivo [9]): 0.455 L/h/kg; IC50 [10]: 0.00018 µM; IC50 [11]: > 10 µM; IC50 (HGC-27 [12]): 0.025 µM; TGI (NCI-H209 [13]): Dose-dependent effect; IC50 (NCI-H460 [14]): 0.016 mg/L (≈ 0.0287 µM); IC50 [15]: 0.0013 µM; AUC(0-t) (in vivo [16]): 7.19 µg·h/mL; IC50 (MDA-MB-231): 0.18 µM; AUC(0-inf) (in vivo [17]): 7.24 µg·h/mL; IC50 (U-251): 0.32 µM; IC90 (Mus musculus [18]): 0.00081 mg/L (≈ 0.00145 µM); inhibition in vivo at […] (MGC-803 [19]): 68.2%; MTD at 336 h (in vivo [20]): > 40 mg/kg; fraction unbound at 6 h, 2 µM (in vitro [21]): 0.0823; inhibition in vivo at 10 mg/kg (NCI-H460 [22]): 79.8%; IC50 (PC-3): 0.15 µM; Cmax (in vivo [23]): 10.3 µg/mL; inhibition in vivo at 5 mg/kg (MGC-803 [24]): 77.2%; IC50 (U-87 MG [25]): 0.12 µM; AUC(0-t) at 24 h (in vivo [26]): 11.8 µg·h/mL; inhibition in vivo at 10 mg/kg (MGC-803 [27]): 77.7%; fraction unbound at 6 h, 2 µM (in vitro [28]): 0.0422; Tmax (in vivo [29]): 1.8 min; AUCt [30]: 234 ng·h/g; AUC(0-t) (in vivo [31]): 23.9 µg·h/mL; half-life (in vivo [32]): 666 min; Cmax (in vivo [33]): 93 ng/g; AUC(0-inf) (in vivo [34]): 36.2 µg·h/mL; inhibition in vivo at […] (HGC-27 [35]): 92.2%; IC50 (A549): 0.053 µM; IC50 (SH-SY5Y): 0.28 µM; IC50 [36]: 0.0079 µM; inhibition in vivo at 5 mg/kg (NCI-H460 [37]): 72.5%; TGI (MGC-803 [38]): Dose-dependent effect; Vd (in vivo [39]): 0.853 L/kg; IC50 (T98G): 0.42 µM; IC50 (DU-145): 1.7 µM

**Q.** Which inhibition in vivo at 10 mg/kg (NCI-H460 [22]) does the source give for `COc1ccc(-c2cc3c(C)nc(N)nc3n([C@H]3CC[C@H](OCCO)CC3)c2=O)cn1` [PF-04691502] here?
**A.** 67.4%

**Q.** And the IC50 (NCI-H460 [40])?
**A.** 0.2 µM

**Q.** What about the Activity (Mus musculus [41]) of the same molecule?
**A.** Toxic

**Q.** For `CC(=O)O[C@H]1C(=O)[C@@]2(C)[C@H]([C@H](OC(=O)c3ccccc3)[C@]3(O)C[C@H](OC(=O)[C@H](O)[C@@H](NC(=O)c4ccccc4)c4ccccc4)C(C)=C1C3(C)C)[C@]1(OC(C)=O)CO[C@@H]1C[C@@H]2O` [PACLITAXEL], which inhibition in vivo at 24 mg/kg (NCI-H460 [42]) is on record?
**A.** 75.4%

**Q.** And the Activity (Mus musculus [43])?
**A.** Toxic

**Q.** And the inhibition in vivo at 24 mg/kg (NCI-H460 [44])?
**A.** 85.9%

**Q.** And the Activity (Mus musculus [45])?
**A.** Toxic
